From ChEMBL document CHEMBL1909493, “Synthesis and biological evaluation of novel analogues of the pan class I phosphatidylinositol 3-kinase (PI3K) inhibitor 2-(difluoromethyl)-1-[4,6-di(4-morpholinyl)-1,3,5-triazin-2-yl]-1H-benzimidazole (ZSTK474)” (J Med Chem, 2011)
Converted amounts (≈) assume the structure as drawn.

Key:
[1] = molecular target: T1, Phosphatidylinositol 4,5-bisphosphate 3-kinase catalytic subunit beta isoform (Homo sapiens, UniProt P42338); experiment: Inhibition of human His-tagged PI3K p110beta after 2 hrs by HTRF assay
[2] = Cmax in CD1 mouse at 10 mg/kg, ip administered as single dose by LC-MS/MS analysis; format: ADME, organism-based; parameters: dose 10 mg/kg, route intraperitoneal; details: in vivo
[3] = molecular target: T2, Phosphatidylinositol 4,5-bisphosphate 3-kinase catalytic subunit alpha isoform (Homo sapiens, UniProt P42336); experiment: Inhibition of human His-tagged PI3K p110alpha after 2 hrs by HTRF assay
[4] = molecular target: T2, Phosphatidylinositol 4,5-bisphosphate 3-kinase catalytic subunit alpha isoform; experiment: Inhibition of PIK3CA-mediated cell signaling in PTEN-deficient human U87MG cells assessed as inhibition of insulin-induced pAkt/PKB phosphorylation at Ser473 treated for 15 mins before insulin challenge measured after 5 mins by immunoblotting; format: cell-based, U-87MG ATCC
[5] = molecular target: Phosphatidylinositol 4,5-bisphosphate 3-kinase catalytic subunit alpha isoform (Mus musculus, UniProt P42337); experiment: Inhibition of mouse recombinant PI3K p110alpha expressed in Sf21 insect cells using phosphatidylinositol as substrate after 1 hr by phosphoimaging
[6] = molecular target: Phosphatidylinositol 4,5-bisphosphate 3-kinase catalytic subunit alpha isoform (Homo sapiens, UniProt P42336, H1047R); experiment: Inhibition of human His-tagged PI3K p110alpha H1047R mutant after 2 hrs by HTRF assay
[7] = molecular target: T3, Phosphatidylinositol 4,5-bisphosphate 3-kinase catalytic subunit delta isoform (Homo sapiens, UniProt O00329); experiment: Inhibition of human His-tagged PI3K p110delta after 2 hrs by HTRF assay
T3 sequence (O00329 whole entry): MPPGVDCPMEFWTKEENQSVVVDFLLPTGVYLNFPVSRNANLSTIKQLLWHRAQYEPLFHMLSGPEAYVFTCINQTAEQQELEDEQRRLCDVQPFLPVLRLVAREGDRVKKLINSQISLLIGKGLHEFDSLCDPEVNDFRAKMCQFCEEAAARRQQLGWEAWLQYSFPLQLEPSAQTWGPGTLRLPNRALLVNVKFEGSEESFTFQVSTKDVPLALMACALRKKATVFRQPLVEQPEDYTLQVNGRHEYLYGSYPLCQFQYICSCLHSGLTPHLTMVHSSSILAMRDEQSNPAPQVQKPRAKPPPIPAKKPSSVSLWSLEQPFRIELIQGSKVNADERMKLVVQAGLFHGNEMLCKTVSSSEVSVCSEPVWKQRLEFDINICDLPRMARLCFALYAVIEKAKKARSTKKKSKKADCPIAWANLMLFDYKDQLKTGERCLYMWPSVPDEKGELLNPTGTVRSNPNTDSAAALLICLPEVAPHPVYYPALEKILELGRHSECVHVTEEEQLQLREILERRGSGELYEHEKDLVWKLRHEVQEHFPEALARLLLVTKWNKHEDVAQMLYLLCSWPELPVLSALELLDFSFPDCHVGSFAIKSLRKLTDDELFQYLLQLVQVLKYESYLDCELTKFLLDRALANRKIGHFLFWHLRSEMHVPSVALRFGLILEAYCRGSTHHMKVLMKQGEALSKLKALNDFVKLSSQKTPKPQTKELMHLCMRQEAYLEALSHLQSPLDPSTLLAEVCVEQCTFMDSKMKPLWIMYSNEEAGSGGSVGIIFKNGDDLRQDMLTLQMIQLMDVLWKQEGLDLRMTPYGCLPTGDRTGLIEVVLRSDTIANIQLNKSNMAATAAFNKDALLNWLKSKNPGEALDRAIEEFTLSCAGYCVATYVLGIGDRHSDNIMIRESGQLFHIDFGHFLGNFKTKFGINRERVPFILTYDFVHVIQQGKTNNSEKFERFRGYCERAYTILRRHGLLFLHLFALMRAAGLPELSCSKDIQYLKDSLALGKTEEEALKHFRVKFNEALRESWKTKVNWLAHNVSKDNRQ

[8] = Tmax in CD1 mouse at 10 mg/kg, ip administered as single dose by LC-MS/MS analysis; format: ADME, organism-based; parameters: dose 10 mg/kg, route intraperitoneal; details: in vivo
cells [9] = details: Homo sapiens, HCT-116
[10] = Aqueous solubility of the compound in water after 15 mins by HPLC analysis; details: aqueous medium
cells [11] = details: Homo sapiens, HCT-116; remark: listed apart in the source
[12] = Inhibition of bovine recombinant PI3K p110delta expressed in Sf21 insect cells using phosphatidylinositol as substrate after 1 hr by phosphoimaging; parameters: species or system Bos taurus
cells [13] = details: Homo sapiens, NZB5
[14] = molecular target: T2, Phosphatidylinositol 4,5-bisphosphate 3-kinase catalytic subunit alpha isoform; experiment: Inhibition of PIK3CA-mediated cell signaling in PTEN-deficient human U87MG cells assessed as inhibition of insulin-induced pAkt/PKB phosphorylation at Thr308 treated for 15 mins before insulin challenge measured after 5 mins by immunoblotting; format: cell-based, U-87MG ATCC
[15] = molecular target: Phosphatidylinositol 4,5-bisphosphate 3-kinase catalytic subunit alpha isoform (Homo sapiens, UniProt P42336, E545K); experiment: Inhibition of human PI3K p110alpha helical domain E545K mutant after 2 hrs by HTRF assay
[16] = molecular target: T1, Phosphatidylinositol 4,5-bisphosphate 3-kinase catalytic subunit beta isoform; experiment: Inhibition of human recombinant PI3K p110beta expressed in Sf21 insect cells using phosphatidylinositol as substrate after 1 hr by phosphoimaging
[17] = Half life in CD1 mouse at 10 mg/kg, ip administered as single dose by LC-MS/MS analysis; format: ADME, organism-based; parameters: dose 10 mg/kg, route intraperitoneal; details: in vivo
cells [18] = details: Homo sapiens, NZOV9
[19] = molecular target: Phosphatidylinositol 4,5-bisphosphate 3-kinase catalytic subunit gamma isoform (Homo sapiens, UniProt P48736); experiment: Inhibition of human His-tagged PI3K p110gamma after 2 hrs by HTRF assay
[20] = AUC (infinity) in CD1 mouse at 10 mg/kg, ip administered as single dose by LC-MS/MS analysis; format: ADME, organism-based; parameters: time infinity, dose 10 mg/kg, route intraperitoneal; details: plasma
Mus musculus [21] = experiment: Toxicity in PTEN-deficient human U87MG cells xenografted Rag1-/- mouse assessed as delayed body weight loss at 50 mg/kg, ip qd for 10 days; format: organism-based, U-87MG ATCC; parameters: dose 50 mg/kg, route intraperitoneal; details: in vivo, 240 h
Mus musculus [22] = experiment: Toxicity in PTEN-deficient human U87MG cells xenografted Rag1-/- mouse assessed as body weight loss at 15 mg/kg, ip qd for 10 days; format: organism-based, U-87MG ATCC; parameters: dose 15 mg/kg, route intraperitoneal; details: in vivo, 240 h
[23] = Antitumor activity in PTEN-deficient human U87MG xenografted in Rag1-/- mouse assessed as inhibition of tumor growth at 15 mg/kg, ip qd for 10 days measured after 10 days (reference value: 18.5 +/- 3.4%); format: functional, U-87MG ATCC; details: U-87 MG, 240 h, route intraperitoneal, read-out: GI
[24] = Antitumor activity in PTEN-deficient human U87MG xenografted in Rag1-/- mouse assessed as inhibition of tumor growth at 40 mg/kg, ip qd for 10 days measured after 10 days (reference value: 18.5 +/- 3.4%); format: functional, U-87MG ATCC; details: U-87 MG, 240 h, read-out: GI, route intraperitoneal
Mus musculus [25] = experiment: Toxicity in PTEN-deficient human U87MG cells xenografted Rag1-/- mouse assessed as body weight loss at 40 mg/kg, ip qd for 10 days; format: organism-based, U-87MG ATCC; parameters: dose 40 mg/kg, route intraperitoneal; details: in vivo, 240 h

Chain of Phosphatidylinositol 4,5-bisphosphate 3-kinase catalytic subunit alpha isoform (Homo sapiens, UniProt P42336, H1047R) (P42336 whole entry H1047R, canonical isoform): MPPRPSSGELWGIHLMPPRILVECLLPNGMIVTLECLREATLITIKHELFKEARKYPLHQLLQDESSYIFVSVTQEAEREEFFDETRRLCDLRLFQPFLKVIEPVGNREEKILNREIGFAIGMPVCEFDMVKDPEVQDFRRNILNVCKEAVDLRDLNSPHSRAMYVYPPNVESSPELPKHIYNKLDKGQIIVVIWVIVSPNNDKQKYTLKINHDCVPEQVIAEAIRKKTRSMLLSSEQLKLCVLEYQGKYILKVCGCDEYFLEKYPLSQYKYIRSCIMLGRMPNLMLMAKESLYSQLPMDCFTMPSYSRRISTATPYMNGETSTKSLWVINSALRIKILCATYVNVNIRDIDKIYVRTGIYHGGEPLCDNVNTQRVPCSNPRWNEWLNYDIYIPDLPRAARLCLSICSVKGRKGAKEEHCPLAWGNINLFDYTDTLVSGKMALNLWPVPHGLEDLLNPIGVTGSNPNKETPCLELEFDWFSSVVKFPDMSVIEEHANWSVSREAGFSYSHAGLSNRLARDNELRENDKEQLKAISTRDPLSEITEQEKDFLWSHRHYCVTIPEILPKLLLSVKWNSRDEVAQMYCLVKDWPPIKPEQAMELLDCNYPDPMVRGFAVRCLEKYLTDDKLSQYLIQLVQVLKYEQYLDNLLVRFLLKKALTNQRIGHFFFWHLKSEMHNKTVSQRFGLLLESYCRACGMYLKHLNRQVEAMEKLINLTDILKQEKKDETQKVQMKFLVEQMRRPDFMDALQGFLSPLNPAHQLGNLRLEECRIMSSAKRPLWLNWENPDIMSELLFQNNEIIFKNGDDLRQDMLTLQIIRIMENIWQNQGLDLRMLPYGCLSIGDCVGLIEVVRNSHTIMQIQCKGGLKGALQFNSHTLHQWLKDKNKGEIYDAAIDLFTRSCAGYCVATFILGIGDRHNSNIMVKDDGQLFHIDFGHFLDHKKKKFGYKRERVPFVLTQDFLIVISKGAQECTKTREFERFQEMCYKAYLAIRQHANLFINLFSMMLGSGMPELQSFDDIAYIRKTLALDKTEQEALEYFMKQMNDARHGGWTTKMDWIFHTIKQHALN
Chain of Phosphatidylinositol 4,5-bisphosphate 3-kinase catalytic subunit gamma isoform (P48736 whole entry, canonical isoform): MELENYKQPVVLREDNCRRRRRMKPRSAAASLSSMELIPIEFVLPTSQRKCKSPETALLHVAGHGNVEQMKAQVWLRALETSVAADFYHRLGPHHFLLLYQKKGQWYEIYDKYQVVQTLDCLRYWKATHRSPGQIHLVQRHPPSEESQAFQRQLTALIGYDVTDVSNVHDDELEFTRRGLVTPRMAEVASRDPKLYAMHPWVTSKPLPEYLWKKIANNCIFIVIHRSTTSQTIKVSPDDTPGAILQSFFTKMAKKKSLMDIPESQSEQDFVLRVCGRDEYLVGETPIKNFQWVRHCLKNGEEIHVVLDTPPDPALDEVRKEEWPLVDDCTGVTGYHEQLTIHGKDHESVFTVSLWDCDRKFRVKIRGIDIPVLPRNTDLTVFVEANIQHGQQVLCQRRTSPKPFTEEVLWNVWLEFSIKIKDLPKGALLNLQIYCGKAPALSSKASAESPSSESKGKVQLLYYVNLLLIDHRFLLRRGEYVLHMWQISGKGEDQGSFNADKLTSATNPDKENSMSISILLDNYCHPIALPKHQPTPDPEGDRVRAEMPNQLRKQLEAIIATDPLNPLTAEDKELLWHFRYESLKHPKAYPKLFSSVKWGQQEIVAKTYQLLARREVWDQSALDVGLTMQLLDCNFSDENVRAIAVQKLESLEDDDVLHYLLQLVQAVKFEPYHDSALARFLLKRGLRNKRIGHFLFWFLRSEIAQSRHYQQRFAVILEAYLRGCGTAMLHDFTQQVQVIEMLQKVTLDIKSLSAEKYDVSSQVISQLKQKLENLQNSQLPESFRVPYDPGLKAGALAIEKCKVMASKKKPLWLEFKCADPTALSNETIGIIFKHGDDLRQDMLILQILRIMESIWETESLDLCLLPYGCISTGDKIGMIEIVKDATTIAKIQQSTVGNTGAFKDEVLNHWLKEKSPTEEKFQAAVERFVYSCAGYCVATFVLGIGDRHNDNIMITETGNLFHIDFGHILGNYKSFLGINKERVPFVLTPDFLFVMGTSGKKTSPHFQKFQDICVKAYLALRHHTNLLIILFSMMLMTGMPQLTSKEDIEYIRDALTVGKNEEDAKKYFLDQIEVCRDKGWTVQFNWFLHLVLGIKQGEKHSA
Chain of Phosphatidylinositol 4,5-bisphosphate 3-kinase catalytic subunit alpha isoform (Homo sapiens, UniProt P42336, E545K) (P42336 whole entry E545K, the tested form may be a part, canonical isoform): as the sequence (P42336 whole entry H1047R, canonical isoform) above, with E545K, R1047H counted along it
T2 sequence (P42336 whole entry, canonical isoform): as the sequence (P42336 whole entry H1047R, canonical isoform) above, with R1047H counted along it
T1 sequence (P42338 whole entry, canonical isoform): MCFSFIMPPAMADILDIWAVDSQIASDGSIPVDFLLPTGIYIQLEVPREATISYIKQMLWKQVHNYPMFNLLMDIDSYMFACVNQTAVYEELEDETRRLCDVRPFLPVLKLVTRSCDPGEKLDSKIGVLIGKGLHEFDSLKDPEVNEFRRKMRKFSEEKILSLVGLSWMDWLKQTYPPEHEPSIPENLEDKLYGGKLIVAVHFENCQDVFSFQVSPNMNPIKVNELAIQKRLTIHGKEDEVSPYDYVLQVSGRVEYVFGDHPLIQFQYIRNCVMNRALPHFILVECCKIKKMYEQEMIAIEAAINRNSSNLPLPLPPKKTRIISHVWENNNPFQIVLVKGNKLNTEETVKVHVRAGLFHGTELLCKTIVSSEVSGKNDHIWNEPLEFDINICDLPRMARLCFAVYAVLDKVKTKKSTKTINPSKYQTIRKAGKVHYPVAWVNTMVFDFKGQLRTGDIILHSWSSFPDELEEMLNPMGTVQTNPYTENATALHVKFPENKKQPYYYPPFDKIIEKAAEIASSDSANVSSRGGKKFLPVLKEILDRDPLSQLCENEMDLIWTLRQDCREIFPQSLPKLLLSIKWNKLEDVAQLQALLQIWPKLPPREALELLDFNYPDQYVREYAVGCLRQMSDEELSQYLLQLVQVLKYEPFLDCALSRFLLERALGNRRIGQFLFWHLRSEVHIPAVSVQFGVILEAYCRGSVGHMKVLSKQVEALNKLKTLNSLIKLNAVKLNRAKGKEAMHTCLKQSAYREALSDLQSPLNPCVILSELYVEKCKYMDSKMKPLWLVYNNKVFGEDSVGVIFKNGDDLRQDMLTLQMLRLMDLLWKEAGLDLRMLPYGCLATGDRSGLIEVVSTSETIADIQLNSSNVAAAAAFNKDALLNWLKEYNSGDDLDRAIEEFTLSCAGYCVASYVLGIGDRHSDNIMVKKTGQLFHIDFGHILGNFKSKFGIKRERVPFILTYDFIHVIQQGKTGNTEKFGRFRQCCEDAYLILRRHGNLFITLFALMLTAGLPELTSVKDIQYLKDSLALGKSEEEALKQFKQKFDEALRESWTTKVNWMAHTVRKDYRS
Chain of Phosphatidylinositol 4,5-bisphosphate 3-kinase catalytic subunit alpha isoform (Mus musculus, UniProt P42337) (P42337 whole entry, canonical isoform): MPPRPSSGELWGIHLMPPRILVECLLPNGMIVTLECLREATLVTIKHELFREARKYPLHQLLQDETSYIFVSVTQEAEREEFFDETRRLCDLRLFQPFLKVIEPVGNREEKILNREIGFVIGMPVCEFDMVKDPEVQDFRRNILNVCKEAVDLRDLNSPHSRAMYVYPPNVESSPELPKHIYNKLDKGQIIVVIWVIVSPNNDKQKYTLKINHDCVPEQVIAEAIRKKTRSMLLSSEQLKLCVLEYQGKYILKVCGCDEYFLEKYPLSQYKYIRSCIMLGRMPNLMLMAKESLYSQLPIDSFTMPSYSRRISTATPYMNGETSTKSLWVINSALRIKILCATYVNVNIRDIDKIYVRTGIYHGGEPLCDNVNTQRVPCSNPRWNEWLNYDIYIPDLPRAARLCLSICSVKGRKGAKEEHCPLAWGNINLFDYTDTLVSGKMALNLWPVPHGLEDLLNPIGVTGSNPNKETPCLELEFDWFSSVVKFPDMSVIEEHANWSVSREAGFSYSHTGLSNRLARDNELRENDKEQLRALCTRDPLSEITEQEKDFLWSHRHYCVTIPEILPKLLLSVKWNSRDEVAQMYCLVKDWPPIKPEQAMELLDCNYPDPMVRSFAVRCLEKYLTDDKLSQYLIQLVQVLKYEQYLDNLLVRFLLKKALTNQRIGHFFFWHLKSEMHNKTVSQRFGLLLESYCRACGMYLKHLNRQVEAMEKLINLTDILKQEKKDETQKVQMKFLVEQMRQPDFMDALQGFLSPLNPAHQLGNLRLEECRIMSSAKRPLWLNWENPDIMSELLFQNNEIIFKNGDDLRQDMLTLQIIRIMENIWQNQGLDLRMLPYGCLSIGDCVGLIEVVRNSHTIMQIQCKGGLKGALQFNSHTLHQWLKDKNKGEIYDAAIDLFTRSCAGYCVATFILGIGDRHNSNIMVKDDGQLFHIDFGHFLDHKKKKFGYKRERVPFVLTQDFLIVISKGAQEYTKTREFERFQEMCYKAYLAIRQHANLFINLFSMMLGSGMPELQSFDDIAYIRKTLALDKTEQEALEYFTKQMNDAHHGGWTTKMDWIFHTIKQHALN

SMILES | IC50 [1] | Cmax [2] | IC50 [3] | IC50 [4] | IC50 [5] | IC50 [6] | IC50 [7] | Tmax [8] | IC50 (cells [9]) | solubility at […] [10] | IC50 (cells [11]) | IC50 [12] | IC50 (cells [13]) | IC50 [14] | IC50 [15] | IC50 [16] | half-life [17] | IC50 (cells [18]) | IC50 [19] | AUC(0-inf) [20] | other results
Oc1cccc2c1nc(C(F)F)n2-c1nc(N2CCOCC2)nc(N2CCOCC2)n1 | 3.5 nM | 628 nM | 0.53 nM | 1.3 nM | 0.9 nM | 0.83 nM | 0.65 nM | 0.25 h | 8.3 nM | 0.32 µg/mL (≈ 0.738 µM) | 0.18 nM | 0.27 nM | 30 nM | 2.9 nM | 0.12 nM | 0.68 nM | 1.55 h | 10 nM | 6 nM | 1.03 µM·h | –
FC(F)Oc1cccc2c1nc(C(F)F)n2-c1nc(N2CCOCC2)nc(N2CCOCC2)n1 | > 2500 nM | – | 4.7 nM | 427 nM | 26 nM | 8.5 nM | 34 nM | – | 415 nM | – | 381 nM | 7.4 nM | 47 nM | 418 nM | 3 nM | 56 nM | – | 28 nM | 56 nM | – | –
COc1ccc2c(nc(C(F)F)n2-c2nc(N3CCOCC3)nc(N3CCOCC3)n2)c1O | 44 nM | – | 70 nM | 583 nM | 37 nM | 158 nM | 2 nM | – | 507 nM | – | 515 nM | 0.3 nM | 334 nM | 378 nM | 49 nM | 6.7 nM | – | 130 nM | 52 nM | – | –
COc1cc(N)cc2c1nc(C(F)F)n2-c1nc(N2CCOCC2)nc(N2CCOCC2)n1 | – | 3450 nM | – | – | – | – | – | 0.083 h | 12 nM | – | – | – | – | – | – | – | 1.48 h | – | – | 5.22 µM·h | Activity (Mus musculus [21]): Toxic
Cn1c(=O)n(-c2ccc(C(C)(C)C#N)cc2)c2c3cc(-c4cnc5ccccc5c4)ccc3ncc21 [DACTOLISIB] | – | – | – | – | – | – | – | – | – | – | – | – | – | – | – | – | – | – | – | – | Activity (Mus musculus [22]): Non-toxic; inhibition in vivo at 15 mg/kg [23]: 31.5%
FC(F)c1nc2ccccc2n1-c1nc(N2CCOCC2)nc(N2CCOCC2)n1 [ZSTK-474] | – | 2360 nM | – | – | – | – | – | 2 h | 97 nM | 0.61 µg/mL (≈ 1.46 µM) | 78 nM | – | – | – | – | – | 1.52 h | – | – | 9.66 µM·h | inhibition in vivo at 40 mg/kg [24]: 65.3%; Activity (Mus musculus [25]): Non-toxic
